Measurements reported in BindingDB's records for doi:10.1016/j.chembiol.2007.09.006 (University of Virginia At Charlottesville, 2007).
pIC50: −log10 of the molar value.

Target: T1, Core-binding factor subunit beta (Homo sapiens, UniProt Q13951)
T1 sequence (Q13951 whole entry): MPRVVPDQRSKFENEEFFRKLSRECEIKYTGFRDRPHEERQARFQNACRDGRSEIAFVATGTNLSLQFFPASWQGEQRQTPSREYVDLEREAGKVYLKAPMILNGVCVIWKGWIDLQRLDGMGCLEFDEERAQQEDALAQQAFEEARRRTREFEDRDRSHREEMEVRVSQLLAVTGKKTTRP
Assay: FRET Assay
Conditions: pH 7.5; 23 °C
Method: Protein concentrations were determined by UV absorption at 433 nm for Cerulean-Runt and 513 nm for Venus-CBFbeta. […] Mean values of IC50 originating from two independent measurements performed in duplicate together with the standard deviations are reported.

| SMILES | pIC50 |
| --- | --- |
| Nc1nc(-c2ccc(C(F)(F)F)cc2)cs1 [thiazol-2-amine, 5] | 5.05 |
| COc1ccc(-c2csc(N)n2)cc1 [thiazol-2-amine, 6] | 4.73 |
| Nc1nc(-c2cccc(Cl)c2)cs1 [thiazol-2-amine, 9] | 4.92 |
| Cc1cccc(-c2csc(N)n2)c1 [thiazol-2-amine, 10] | 3.96 |
| COc1cccc(-c2csc(N)n2)c1 [thiazol-2-amine, 11] | 4.21 |
| Cc1ccccc1-c1csc(N)n1 [thiazol-2-amine, 13] | 5.30 |
| CCCc1sc(N)nc1-c1ccc(OC)cc1 [thiazol-2-amine, 18] | 4.63 |
| CCc1sc(N)nc1-c1ccccc1OC [thiazol-2-amine, 20] | 4.77 |
| CCOc1ccc(-c2nc(N)sc2CC)cc1 [thiazol-2-amine, 21] | < 3.30 |

Further molecules by rising pIC50, results first:

| pIC50 | SMILES |
| --- | --- |
| 4.18 | CCc1sc(N)nc1-c1cccc(C)c1 [thiazol-2-amine, 19] |
| 4.31 | Nc1nc(-c2ccc(Cl)cc2Cl)cs1 [thiazol-2-amine, 16] |
| 4.39 | COc1ccc(-c2csc(N)n2)cc1OC [thiazol-2-amine, 7] |
| 5.05 | Nc1nc(-c2ccc3c(c2)OCO3)cs1 [thiazol-2-amine, 8] |
| 5.49 | CCc1sc(N)nc1-c1ccc(OC)cc1 [thiazol-2-amine, 17] |
| 5.96 | Nc1nc(-c2ccccc2Cl)cs1 [thiazol-2-amine, 14] |
